Results from patent US20020035061A1, “COMPOSITIONS AND METHODS FOR TREATING INFECTIONS USING CATIONIC PEPTIDES ALONE OR IN COMBINATION WITH ANTIBIOTICS” (priority 1996, published 2002).
Where two headings read alike, the source gives them in different places.

Tests used:
Type in all cases: cell-based
S. maltophilia = system: S. maltophilia
K. pneumoniae = system: K. pneumoniae
S. marcescens = system: S. marcescens
E. cloacae = E. cloacae strain ECL007
P. aeruginosa = system: P. aeruginosa
E. coli = system: E. coli
E. faecalis = system: E. faecalis
A. calcoaceticus = A. calcoaceticus strain AC001
E. faecium = system: E. faecium
S. aureus = system: S. aureus
S. epidermidis = S. epidermidis strain SE002

| Sequence | MIC (S. maltophilia; S. maltophilia strain SMA002) [µg/mL] | MIC (K. pneumoniae; K. pneumoniae strain KP002) [µg/mL] | MIC (S. marcescens; S. marcescens strain SMS004) [µg/mL] | MIC (E. cloacae) [µg/mL] | MIC (P. aeruginosa; P. aeruginosa strain PA003) [µg/mL] | MIC (E. coli; E. coli strain ECO003) [µg/mL] | MIC (A. calcoaceticus) [µg/mL] | MIC (S. maltophilia; S. maltophilia strain SMA001) [µg/mL] | MIC (E. faecalis; E. faecalis strain EFS002) [µg/mL] | MIC (E. faecium; E. faecium strain EFM003) [µg/mL] | MIC (S. aureus; S. aureus strain SA009) [µg/mL] | MIC (K. pneumoniae; K. pneumoniae strain KP001) [µg/mL] | other results |
| --- | --- | --- | --- | --- | --- | --- | --- | --- | --- | --- | --- | --- | --- |
| ILRRWPWWPWRK [MBI 11B2CN] | 64 | 64 | >128 | >128 | >128 | 16 | 64 |  |  |  |  |  | MIC (E. faecalis; E. faecalis strain EFS004): 8 µg/mL; MIC (E. faecium; E. faecium strain EFM001): 8 µg/mL; MIC (S. aureus; S. aureus strain SA005): 2 µg/mL |
| ILRRWPWWPWRRR [MBI 11B9ACN] |  | 32 | >128 | >128 |  | 8 | 32 | 16 |  |  |  |  | MIC (P. aeruginosa; P. aeruginosa strain PA005): >128 µg/mL; MIC (E. faecalis; E. faecalis strain EFS004): 8 µg/mL; MIC (E. faecium; E. faecium strain EFM001): 4 µg/mL; MIC (S. aureus; S. aureus strain SA019): 2 µg/mL; MIC (S. epidermidis): 2 µg/mL |
| WWKKWPWWPWRRK [MBI 11C5CN] | 16 | 16 | >128 | >128 | 64 |  | 32 |  | 16 | 2 | 2 |  | MIC (E. coli; E. coli strain ECO001): 8 µg/mL; MIC (S. epidermidis): 2 µg/mL |
| ILKKPWWPWRRK [MBI 11G3CN] |  |  | >128 | >128 | >128 | 64 |  | >128 | 64 |  | 8 | >128 | MIC (E. faecium; E. faecium strain EFM002): 32 µg/mL |
| ILKKWWWPWRK [MBI 11D14CN] |  |  |  |  |  |  |  |  | 32 | 1 | 4 |  |  |
| ILKKYPWYPWRRK [MBI 11A5CN] | >128 |  |  | >128 | >128 | 128 | >128 |  | 32 | 4 |  | >128 | MIC (S. marcescens; S. marcescens strain SMS003): >128 µg/mL; MIC (S. aureus; S. aureus strain SA002): 16 µg/mL |
| ILKKWPWWPWRPMILKKAGS [MBI 11D5CN] |  |  | >64 | >64 | >64 | 64 | >64 | 64 | 16 | 1 |  | >64 | MIC (S. aureus; S. aureus strain SA005): 8 µg/mL |
| ILKKNPNNPNRRK [MBI 11M8] |  |  |  |  |  |  |  |  |  |  |  |  | MIC (E. faecalis; E. faecalis EFS002): 32 µg/mL; MIC (E. faecium; E. faecium EFM002): 32 µg/mL; MIC (S. aureus; S. aureus SA008): 32 µg/mL |
